Molecular target: T1, 41O1_SusD-like (uncultured Bacteroides sp., UniProt Z9V4V4YR65)
T1 construct: mature protein without predicted lipoprotein signal peptide, N-terminal 6-His tag (pET-28a(+)), E. coli BL21(DE3), codon-optimized gene, 57 kDa, monomer fraction used
T1 sequence (Z9V4V4YR65 22-505): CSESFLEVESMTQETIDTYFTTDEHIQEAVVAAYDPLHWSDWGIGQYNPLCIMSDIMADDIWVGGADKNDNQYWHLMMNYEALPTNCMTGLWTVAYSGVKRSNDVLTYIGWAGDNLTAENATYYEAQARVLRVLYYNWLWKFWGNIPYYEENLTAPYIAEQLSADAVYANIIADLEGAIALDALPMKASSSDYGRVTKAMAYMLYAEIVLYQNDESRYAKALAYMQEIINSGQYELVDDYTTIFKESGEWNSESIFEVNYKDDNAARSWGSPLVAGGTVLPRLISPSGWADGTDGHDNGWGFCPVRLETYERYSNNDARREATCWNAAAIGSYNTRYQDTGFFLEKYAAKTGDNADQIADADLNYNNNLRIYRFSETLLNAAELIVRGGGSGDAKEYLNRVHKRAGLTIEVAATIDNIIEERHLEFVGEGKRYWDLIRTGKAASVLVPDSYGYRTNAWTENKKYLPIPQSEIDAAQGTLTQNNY
Assay: thermal shift, Tycho NT.[…] intrinsic fluorescence
Format: binding
Conditions: 0.5% (w/v) ligand, 10 µM protein, 20 mM Tris-HCl, 150 mM NaCl, pH 7.4

Row | ∆T°C [°C] | SMILES
1 | 1.2 | OC[C@H]1O[C@@H](O[C@H]2[C@H](O)[C@@H](O)[C@H](O[C@H]3[C@H](O)[C@@H](O)C(O)O[C@@H]3CO)O[C@@H]2CO)[C@H](O)[C@@H](O)[C@@H]1O (some centres unmarked) [Cellotriose]
2 | 4.7 | OC[C@H]1O[C@@H](O[C@@H]2[C@@H](O)[C@H](O[C@H]3[C@H](O)[C@@H](CO)OC(O)[C@@H]3O)O[C@H](CO)[C@H]2O)[C@H](O)[C@@H](O)[C@@H]1O (some centres unmarked) [Laminaritriose]
